Where two headings read alike, the source gives them in different places.
Key:
A2780 cells [1] = test: MTT cytotoxicity assay, A2780 cells; conditions: for IC50: Homo sapiens, read-out: IC50 cytotoxicity
Procedure: (§1) In separate experiments, cells were seeded in 96‐well plates and after 24 h elapsed they were exposed to different concentrations of drugs or vehicle. Cells were then left in the incubator for a further 24 or 48 h. Then the media was replaced with fresh media containing no drug and the cells were left in the incubator. MTT assay was performed after 96 h elapsed from the time when cells were exposed to drugs or vehicle.
(§2) The cells were then left in the incubator and MTT assay was performed 96 h following the initial exposure to the drugs.
(§3) The selective index (SI) is the ratio of mean IC50 values for non‐cancer cells to cancer cells. […] While the isobologram can be considered predominantly as a graphical depiction of drug interactions, the combination index (CI) is a quantitative representation. It relates the actual drug concentration in the combination to the concentration of the single drug that achieves the same effect. […] Here, CI analysis was used to investigate combinations at 50% cytotoxicity. To this end the IC50 of the viability dose–response curves were determined by non‐linear regression curve fit analysis (GraphPad Prism, v5.00).
(§4) CIA+B is the combination index of A and B; C A the concentration of A applied in combination; C B the concentration of B applied in combination; IC50 A the IC50 of drug A when it was applied individually to the cells; IC50 B = IC50 of drug B when it was applied individually to the cells.

A2780/CP70 cells [2] = test: MTT cytotoxicity assay, A2780/CP70 cells; conditions: for IC50: Homo sapiens, read-out: IC50 cytotoxicity
Procedure: as §1, §2, §3, §4

A2780/CP70 cells [3] = test: Annexin V assay, A2780/CP70 cells; assay type: cell-based, human; conditions: A2780/CP70, 50 μM, 24 h
Procedure: The Annexin V assay was performed to differentiate healthy cells from early and late apoptotic cells. Cells were seeded in T25 flasks at 2.75 × 10^5 cells per flask and were incubated for 24 h. After the incubation time elapsed, drugs at concentrations of 10, 30, and 50 μM or vehicle were added to the flasks and further incubated for 24 h. Cells were suspended in PBS at a density of 4 × 10^5 cells/mL, followed by centrifugation at 400 g for 5 min. The supernatant was removed and replaced with 100 μL of Annexin V mix, 94 μL of Roche buffer, 2 μL of Annexin V‐CF488A, 2 μL of 10 μg/mL of propodium iodide (PI), and 2 μL of Hoechst 33342 buffer. Hoechst 33342 buffer in the Annexin V mix binds to the nuclei in the sample and fluoresces violet. The early apoptotic cells are stained with Annexin V‐CF488A, which fluoresces green. The non‐viable cells are stained by PI, and the late apoptotic cells are stained by both PI and Annexin V‐CF488A, which fluoresces red and green, respectively. […] After the incubation time elapsed, 40 μL of samples were loaded on to an A‐2 slide and were analyzed immediately using the NC‐3000 system. The scatter plot of the fluorescence intensity of Annexin V‐CF488A versus the fluorescence intensity of PI was used as a representation of cells in different stages of apoptosis.

A2780 cells [4] = test: Cell cycle analysis (DAPI, NC-3000), A2780 cells; assay type: cell-based, human; conditions: 48 h
Procedure: (§5) Cells were seeded in T25 flasks at 4 × 10^5 cells per flask and were incubated for 48 h or until they reached confluency. […] After the incubation time elapsed cells were suspended in PBS with a density closer to 1 × 10^6cells/mL. The cells were washed twice with 1× PBS before the addition of 250 μL of lysis buffer (solution 10) supplemented with 10 μg/mL DAPI (solution 12) was added to the samples and incubated for 5 min at 37°C. After incubation, 250 μL of stabilization buffer (solution 11) was added. 12.5 μL of samples were loaded on to an A‐8 slide and were analyzed using the NC‐3000 system.

A2780/CP70 cells [5] = test: Cell cycle analysis (DAPI, NC-3000), A2780/CP70 cells; assay type: cell-based, human; conditions: 48 h
Procedure: as §5

A2780 cells [6] = test: Mitochondrial membrane potential assay (JC-1), A2780 cells; assay type: cell-based, human; conditions: A2780, 10-50 μM, 24 h, dose-dependent
Procedure: The mitochondrial membrane potential assay was performed to detect the loss in mitochondrial potential (de‐polarization), which is a vital step in apoptosis.[36] Cells were seeded in T25 flasks at 4 × 10^5 cells per flask and were incubated for 48 h or until they reached confluency. After the incubation time elapsed, drugs at concentrations of 10, 30, and 50 μM or vehicle were added to the flasks and further incubated for 24 h. After 24 h elapsed, the cells were harvested and suspended in PBS. Cell viability and number were determined by the cell viability assay using via1 cassettes on NC‐3000 system. The samples were diluted in PBS to 1 × 10^6 cells/mL and 2.5 μg/mL of JC‐1 dye was added to each sample. JC‐1 is a […] dye, which stains as fluorescent red as it aggregates in the mitochondrial matrix. In the absence of mitochondrial membrane potential, JC‐1 localizes in the cytosol in its fluorescent green form. Following the addition of JC‐1, the cells were incubated for 10–30 min at 37°C. […] 12.5 μL of samples were loaded on to an A‐8 slide and were analyzed using the NC‐3000 image cytometry. The degree of apoptosis (in proportional to the loss in mitochondrial membrane potential) was measured using a scatter plot of JC‐1 red fluorescence versus JC‐1 green fluorescence.

CCCCCc1cc(O)c(C/C=C(\C)CCC=C(C)C)c(O)c1 [CBG, cannabigerol]
IC50 (A2780 cells [1]; A2780, 24 h): 15.3 ± 0.3 µM | IC50 (A2780 cells [1]; A2780, 48 h): 13.9 ± 0.6 µM | IC50 (A2780 cells [1]; A2780, 72 h): 9.4 ± 0.8 µM | IC50 (A2780 cells [1]; A2780, 96 h): 5.7 ± 0.2 µM | Selectivity index (A2780 cells [1]; IC50 ARPE19 / IC50 A2780, 24 h): 2.09 | Selectivity index (A2780 cells [1]; IC50 ARPE19 / IC50 A2780, 48 h): 1.53 | Selectivity index (A2780 cells [1]; IC50 ARPE19 / IC50 A2780, 72 h): 2.04 | Selectivity index (A2780 cells [1]; IC50 ARPE19 / IC50 A2780, 96 h): 3.05 | Selectivity index (A2780 cells [1]; IC50 PNT2 / IC50 A2780, 24 h): 2.43 | Selectivity index (A2780 cells [1]; IC50 PNT2 / IC50 A2780, 48 h): 1.65 | Selectivity index (A2780 cells [1]; IC50 PNT2 / IC50 A2780, 72 h): 2.12 | Selectivity index (A2780 cells [1]; IC50 PNT2 / IC50 A2780, 96 h): 3.20 | IC50 (A2780/CP70 cells [2]; A2780/CP70, 24 h): 17.7 ± 0.1 µM | IC50 (A2780/CP70 cells [2]; A2780/CP70, 48 h): 15.4 ± 0.7 µM | IC50 (A2780/CP70 cells [2]; A2780/CP70, 72 h): 12.3 ± 1.4 µM | IC50 (A2780/CP70 cells [2]; A2780/CP70, 96 h): 7.1 ± 0.8 µM | Selectivity index (A2780/CP70 cells [2]; IC50 ARPE19 / IC50 A2780/CP70, 24 h): 1.81 | Selectivity index (A2780/CP70 cells [2]; IC50 ARPE19 / IC50 A2780/CP70, 48 h): 1.37 | Selectivity index (A2780/CP70 cells [2]; IC50 ARPE19 / IC50 A2780/CP70, 72 h): 1.56 | Selectivity index (A2780/CP70 cells [2]; IC50 ARPE19 / IC50 A2780/CP70, 96 h): 2.45 | Selectivity index (A2780/CP70 cells [2]; IC50 PNT2 / IC50 A2780/CP70, 48 h): 1.48 | Selectivity index (A2780/CP70 cells [2]; IC50 PNT2 / IC50 A2780/CP70, 72 h): 1.59 | Selectivity index (A2780/CP70 cells [2]; IC50 PNT2 / IC50 A2780/CP70, 96 h): 2.56 | Cells in early apoptosis (A2780/CP70 cells [3]): 72 ± 1.4% | Cells in late apoptosis (A2780/CP70 cells [3]): 9 ± 1.4% | Cells in G0/G1 phase (A2780 cells [4]; A2780, 10 μM): 79.1 ± 0.4% | Cells in G0/G1 phase (A2780 cells [4]; A2780, 30 μM): 80.2 ± 1.3% | Cells in G0/G1 phase (A2780 cells [4]; A2780, 50 μM): 67.6 ± 1.1% | Cells in subG1 phase (A2780 cells [4]; A2780, 50 μM): 8.7 ± 0.6% | Cells in G0/G1 phase (A2780/CP70 cells [5]; A2780/CP70, 10 μM): 86.4 ± 0.5% | Cells in G0/G1 phase (A2780/CP70 cells [5]; A2780/CP70, 30 μM): 90.6 ± 0.4% | Cells in S phase (A2780/CP70 cells [5]; A2780/CP70, 30 μM): 5.6 ± 0.6% | Cells in G2/M phase (A2780/CP70 cells [5]; A2780/CP70, 50 μM): 16.4 ± 1.9% | Percentage of apoptotic cells (loss of mitochondrial membrane potential) (A2780 cells [6]): induced an increase in the percentage of apoptotic cells

Reference: PMC10723784, “Investigation of the cytotoxicity induced by cannabinoids on human ovarian carcinoma cells” (Pharmacology Research & Perspectives, 2023)
